In PMC3368506 (Journal of the American Chemical Society, 2012):
Read-outs that look alike come from different tables or passages of the source.

How the values were obtained:
Cu^2+–Aβ42 species = Cu^2+–Aβ42 species (Homo sapiens, UniProt P05067); assay: H2O2 production, HRP/Amplex Red assay; assay type: biochemical; conditions: reducing conditions (sodium ascorbate)
Neuro2A (N2A) cells = assay: Cytotoxicity, Alamar Blue cell viability assay; assay type: cell-based, Mouse
[1] = pH 7.4; 1:1 metal:ligand, 50 μM each; ref [78]; cited from earlier work
[2] = 1:1 metal:ligand, 50 μM each, ref [78], cited from earlier work

Cu^2+–Aβ42 species, sequence (P05067 672-713 limits assumed): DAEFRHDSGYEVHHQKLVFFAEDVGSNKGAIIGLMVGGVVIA

Question: What does the source list for `Oc1c(I)cc(Cl)c2cccnc12` [CQ, clioquinol]?
Answer: Reduction of H2O2 production by Cu–Aβ42 species (Cu^2+–Aβ42 species): almost no effect; Cell survival, disaggregation conditions (Neuro2A (N2A) cells; Aβ42 fibrils 20 μM + compound 2 μM + Cu^2+ 20 μM): marked cell toxicity; Cell survival (Neuro2A (N2A) cells; concentrations >2 μM): < 30%

Question: With `O=C(O)CN(CCN(CC(=O)O)CC(=O)O)CCN(CC(=O)O)CC(=O)O` [DTPA, diethylenetriaminepentaacetic acid] as the compound, how does the “pZn (−log[Zn^2+]free)” value [1] read?
Answer: 9.3

Question: And the “pCu (−log[Cu^2+]free)” value ([2]; pH 6.6)?
Answer: 9.7

Question: And the “pCu (−log[Cu^2+]free)” value ([2]; pH 7.4)?
Answer: 10.7

Question: For `O=C(O)CN(CCN(CC(=O)O)CC(=O)O)CC(=O)O` [EDTA, ethylenediaminetetraacetic acid], which Cell survival (Neuro2A (N2A) cells; up to 20 μM concentration) is on record?
Answer: 90–95%

Question: Which “Reduction of H2O2 production by Cu–Aβ42 species” value (Cu^2+–Aβ42 species) does the source give for `CN(Cc1ccccn1)Cc1ccccn1` [L*, N-methyl-N,N-bis(2-pyridylmethyl)amine] here?
Answer: dramatic reduction

Question: Which “Reduction of H2O2 production by Cu–Aβ42 species” value (Cu^2+–Aβ42 species) does the source give for `c1cnc2c(c1)ccc1cccnc12` [phen, phenanthroline] here?
Answer: almost no effect
